Structures can show the parent of a compound that is named as a salt.
Target: T1, AR (Homo sapiens, UniProt P10275)
T1 construct: endogenous in cells; host or cells: VCaP cells
T1 sequence (P10275 1-920): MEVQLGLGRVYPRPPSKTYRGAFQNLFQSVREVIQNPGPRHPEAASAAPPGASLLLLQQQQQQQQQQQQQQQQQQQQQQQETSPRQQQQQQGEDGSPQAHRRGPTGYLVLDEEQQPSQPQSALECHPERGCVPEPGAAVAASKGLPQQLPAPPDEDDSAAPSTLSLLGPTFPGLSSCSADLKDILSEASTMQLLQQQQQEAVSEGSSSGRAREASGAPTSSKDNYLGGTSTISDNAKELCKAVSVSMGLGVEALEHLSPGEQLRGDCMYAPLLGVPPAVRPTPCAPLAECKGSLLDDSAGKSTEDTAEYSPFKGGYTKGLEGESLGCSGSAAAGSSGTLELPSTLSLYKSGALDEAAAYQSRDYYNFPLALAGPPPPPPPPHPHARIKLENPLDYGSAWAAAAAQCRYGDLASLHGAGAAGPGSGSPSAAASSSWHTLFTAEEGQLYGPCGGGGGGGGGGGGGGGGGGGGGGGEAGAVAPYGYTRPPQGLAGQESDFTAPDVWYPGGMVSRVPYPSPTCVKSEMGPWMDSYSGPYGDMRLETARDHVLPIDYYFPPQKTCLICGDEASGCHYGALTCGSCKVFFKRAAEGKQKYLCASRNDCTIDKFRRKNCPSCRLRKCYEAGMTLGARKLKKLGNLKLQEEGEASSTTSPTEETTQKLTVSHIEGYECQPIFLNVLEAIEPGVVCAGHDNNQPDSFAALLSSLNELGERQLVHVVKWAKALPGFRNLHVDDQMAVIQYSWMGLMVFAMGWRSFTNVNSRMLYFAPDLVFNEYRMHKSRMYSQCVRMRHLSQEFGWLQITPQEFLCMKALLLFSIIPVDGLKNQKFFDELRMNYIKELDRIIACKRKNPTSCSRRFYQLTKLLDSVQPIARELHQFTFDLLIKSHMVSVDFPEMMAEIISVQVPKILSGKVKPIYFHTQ
Assay: VCAP AR Degradation Assay
Type: cell-based
Details: for Y (AR degradation efficiency, % of DMSO control): class symbols *; for DC50: class symbols A-C, read-out: DC50
Method in brief: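 AR protein in lysates quantified by sandwich ELISA after 24 h exposure of VCaP cells at 37 °C to 10 concentrations (1:3 steps, 5 μM top, final). Four-parameter logistic fit of percent-of-DMSO levels gave DC50 (50% degradation), EC50 and minimal AR level Y.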

Compound | Y (AR degradation efficiency, % of DMSO control) | DC50 [nM]
CCc1cc(N2C(=S)N(c3cnc(C#N)c(C(F)(F)F)c3)C(=O)C2(C)C)ccc1OCCN1CCN(CC(=O)Nc2cc(Cl)cc(NC3CCC(=O)NC3=O)c2)[C@H](C)C1 (stereo partly drawn) [Example 144, N-(3-chloro-5-(2,6-dioxopiperidin-3-ylamino)phenyl)-2-((R)-4-(2-(4-(3-(6-cyano-5-(trifluoromethyl)pyridin-3-yl)-5,5-dimethyl-4-oxo-2-thioxoimidazolidin-1-yl)-2-ethylphenoxy)ethyl)-2-methylpiperazin-1-yl)acetamide] | * (0<Y<=25%) | < 100
CC(O)c1cc(N2C(=S)N(c3cnc(C#N)c(C(F)(F)F)c3)C(=O)C2(C)C)ccc1OCCN1CCN(CC(=O)Nc2cc(Cl)cc(NC3CCC(=O)NC3=O)c2)CC1 (stereo not shown) [Example 92, N-(3-chloro-5-(2,6-dioxopiperidin-3-ylamino)phenyl)-2-(4-(2-(4-(3-(6-cyano-5-(trifluoromethyl)pyridin-3-yl)-5,5-dimethyl-4-oxo-2-thioxoimidazolidin-1-yl)-2-(1-hydroxyethyl)phenoxy)ethyl)piperazin-1-yl)acetamide] | *** (35%<Y<50%) | 100 to 500
C[C@@H]1CN(CCOc2ccc(N3C(=S)N(c4ccc(C#N)c(C(F)(F)F)c4)C(=O)C3(C)C)cc2CCF)CCN1CC(=O)Nc1cccc(NC2CCC(=O)NC2=O)c1 (stereo partly drawn) [Example 164, 2-((R)-4-(2-(4-(3-(4-cyano-3-(trifluoromethyl)phenyl)-5,5-dimethyl-4-oxo-2-thioxoimidazolidin-1-yl)-2-(2-fluoroethyl)phenoxy)ethyl)-2-methylpiperazin-1-yl)-N-(3-(2,6-dioxopiperidin-3-ylamino)phenyl)acetamide] | * (0<Y<=25%) | < 100
CCc1cc(N2C(=S)N(c3cnc(C#N)c(C(F)(F)F)c3)C(=O)C2(C)C)ccc1OCCN1CCN(CC(=O)Nc2cc(NC3CCC(=O)NC3=O)cc(F)c2F)[C@H](C)C1 (stereo partly drawn) [Example 100, 2-((R)-4-(2-(4-(3-(6-cyano-5-(trifluoromethyl)pyridin-3-yl)-5,5-dimethyl-4-oxo-2-thioxoimidazolidin-1-yl)-2-ethylphenoxy)ethyl)-2-methylpiperazin-1-yl)-N-(5-(2,6-dioxopiperidin-3-ylamino)-2,3-difluorophenyl)acetamide] | * (0<Y<=25%) | < 100
CC1(C)C(=O)N(c2ccc(C#N)c(C(F)(F)F)c2)C(=S)N1c1ccc(OCCN2CCN(CC(=O)Nc3cccc(NC4CCC(=O)NC4=O)c3)CC2)c(Cl)c1 (stereo not shown) [Example 3, hydrochloride] | * (0<Y<=25%) | < 100
CCc1cc(N2C(=S)N(c3cnc(C#N)c(C(F)(F)F)c3)C(=O)C2(C)C)ccc1OCCN1CCN([C@H](C)C(=O)Nc2cc(Cl)cc(NC3CCC(=O)NC3=O)c2)CC1 (single isomer, unassigned) [Example 113] | * (0<Y<=25%) | < 100
CCc1cc(N2C(=S)N(c3ccc(C#N)c(C(F)(F)F)c3)C(=O)C2(C)C)ccc1OCCN1C[C@@H](C)N(CC(=O)Nc2cccc(NC3CCC(=O)NC3=O)c2)[C@H](C)C1 (stereo partly drawn) [Example 129, 2-((2R,6R)-4-(2-(4-(3-(4-cyano-3-(trifluoromethyl)phenyl)-5,5-dimethyl-4-oxo-2-thioxoimidazolidin-1-yl)-2-ethylphenoxy)ethyl)-2,6-dimethylpiperazin-1-yl)-N-(3-(2,6-dioxopiperidin-3-ylamino)phenyl)acetamide] | * (0<Y<=25%) | < 100
CCc1cc(N2C(=S)N(c3ccc(C#N)c(C(F)(F)F)c3)C(=O)C2(C)C)ccc1OCCN1C[C@H](C)N(CC(=O)Nc2cc(Cl)cc(NC3CCC(=O)NC3=O)c2)C[C@@H]1C (stereo partly drawn) [Example 126, N-(3-chloro-5-(2,6-dioxopiperidin-3-ylamino)phenyl)-2-((2S,5S)-4-(2-(4-(3-(4-cyano-3-(trifluoromethyl)phenyl)-5,5-dimethyl-4-oxo-2-thioxoimidazolidin-1-yl)-2-ethylphenoxy)ethyl)-2,5-dimethylpiperazin-1-yl)acetamide] | * (0<Y<=25%) | < 100
CCc1cc(N2C(=S)N(c3ccc(C#N)c(C(F)(F)F)c3)C(=O)C2(C)C)ccc1OCCN1C[C@@H](C)N(CC(=O)Nc2cc(Cl)cc(NC3CCC(=O)NC3=O)c2)C[C@H]1C (stereo partly drawn) [Example 128, N-(3-chloro-5-(2,6-dioxopiperidin-3-ylamino)phenyl)-2-((2R,5R)-4-(2-(4-(3-(4-cyano-3-(trifluoromethyl)phenyl)-5,5-dimethyl-4-oxo-2-thioxoimidazolidin-1-yl)-2-ethylphenoxy)ethyl)-2,5-dimethylpiperazin-1-yl)acetamide] | * (0<Y<=25%) | < 100
CC1(C)C(=O)N(c2cnc(C#N)c(C(F)(F)F)c2)C(=S)N1c1ccc(OCCN2CCN(CC(=O)Nc3cccc(NC4CCC(=O)NC4=O)c3)CC2)cc1 (stereo not shown) [Example 2, hydrochloride] | ** (25%<Y<=35%) | < 100
CCc1cc(N2C(=S)N(c3ccc(C#N)c(C(F)(F)F)c3)C(=O)C23CCC3)ccc1OCCN1CCN(CC(=O)Nc2cc(Cl)cc(NC3CCC(=O)NC3=O)c2)[C@H](C)C1 (stereo partly drawn) [Example 103, N-(3-chloro-5-(2,6-dioxopiperidin-3-ylamino)phenyl)-2-((R)-4-(2-(4-(7-(4-cyano-3-(trifluoromethyl)phenyl)-8-oxo-6-thioxo-5,7-diazaspiro[3.4]octan-5-yl)-2-ethylphenoxy)ethyl)-2-methylpiperazin-1-yl)acetamide] | * (0<Y<=25%) | < 100
CC1(C)C(=O)N(c2ccc(C#N)c(C(F)(F)F)c2)C(=S)N1c1ccc(OCCN2CCN(CC(=O)Nc3cc(NC4CCC(=O)NC4=O)ccc3F)CC2)c(CCF)c1 (stereo not shown) [Example 141, 2-(4-(2-(4-(3-(4-cyano-3-(trifluoromethyl)phenyl)-5,5-dimethyl-4-oxo-2-thioxoimidazolidin-1-yl)-2-(2-fluoroethyl)phenoxy)ethyl)piperazin-1-yl)-N-(5-(2,6-dioxopiperidin-3-ylamino)-2-fluorophenyl)acetamide] | * (0<Y<=25%) | < 100
CCc1cc(N2C(=S)N(c3ccc(C#N)c(C(F)(F)F)c3)C(=O)C2(C)C)cnc1OCCN1C[C@@H](C)N(CC(=O)Nc2cc(Cl)cc(NC3CCC(=O)NC3=O)c2)C[C@H]1C (stereo partly drawn) [Example 189, N-(3-chloro-5-(2,6-dioxopiperidin-3-ylamino)phenyl)-2-((2R,5R)-4-(2-(5-(3-(4-cyano-3-(trifluoromethyl)phenyl)-5,5-dimethyl-4-oxo-2-thioxoimidazolidin-1-yl)-3-ethylpyridin-2-yloxy)ethyl)-2,5-dimethylpiperazin-1-yl)acetamide] | * (0<Y<=25%) | < 100
CCc1cc(N2C(=S)N(c3ccc(C#N)c(C(F)(F)F)c3)C(=O)C2(C)C)ccc1OCCN1CCN(CC(=O)Nc2cccc(NC3CCC(=O)NC3=O)c2)[C@H](C(F)(F)F)C1 (stereo partly drawn) [Example 246, 2-((S)-4-(2-(4-(3-(4-cyano-3-(trifluoromethyl)phenyl)-5,5-dimethyl-4-oxo-2-thioxoimidazolidin-1-yl)-2-ethylphenoxy)ethyl)-2-(trifluoromethyl)piperazin-1-yl)-N-(3-(2,6-dioxopiperidin-3-ylamino)phenyl)acetamide] | * (0<Y<=25%) | < 100

— patent publication US12404241B2 (Celgene Corporation, priority 2018, dated 2025)
